{"source": "patent US11053204B2", "about": "“Pyrimidinyloxy benzene derivatives as herbicides” (FMC Corporation, priority 2015, dated 2021)", "format_in_all_cases": "in vivo", "key": {"[1]": {"test_system": "barnyardgrass (Echinochloa crus-galli)", "test": "Test B flooded paddy test, plant response rating", "settings": "Echinochloa crus-galli, 312 h; 250 g ai/ha; Flood; scale of 0 to 100 where 0 is no effect and 100 is complete control; 13 to 15 days", "outline": "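Greenhouse pots flooded to 3 cm above soil at time of treatment received compound via the water, which stayed at that level.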"}, "[2]": {"test_system": "Italian ryegrass (Lolium multiflorum)", "test": "Test A preemergence, visual injury rating", "settings": "Lolium multiflorum, pre-emergence, 240 h, 0 to 100 scale (0 no effect, 100 complete control), read-out: Ryegrass, Italian plant response rating", "outline": "(§1)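 Visual 0–100 rating (100 = complete control) taken about 10 d post-treatment relative to untreated checks. Preemergence: directed soil spray on sown loam/sand pots. Postemergence: seedlings 2–10 cm, 1–2 leaf. Non-phytotoxic solvent formulation with surfactant.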"}, "[3]": {"test_system": "ragweed (common ragweed, Ambrosia elatior)", "test": "Test A preemergence, visual injury rating", "settings": "Ambrosia artemisiifolia, pre-emergence, 240 h, 0 to 100 scale (0 no effect, 100 complete control), read-out: Ragweed plant response rating", "outline": "as §1"}, "[4]": {"test_system": "kochia (Kochia scoparia)", "test": "Test A preemergence, visual injury rating", "settings": "Bassia scoparia, pre-emergence, 240 h, 0 to 100 scale (0 no effect, 100 complete control), read-out: Kochia plant response rating", "outline": "as §1"}, "[5]": {"test_system": "barnyardgrass (Echinochloa crus-galli)", "test": "Test A preemergence, visual injury rating", "settings": "Echinochloa crus-galli, pre-emergence, 240 h, 0 to 100 scale (0 no effect, 100 complete control), read-out: Barnyardgrass plant response rating", "outline": "as §1"}, "[6]": {"test_system": "pigweed (Amaranthus retroflexus)", "test": "Test A preemergence, visual injury rating", "settings": "Amaranthus retroflexus, pre-emergence, 240 h, 0 to 100 scale (0 no effect, 100 complete control), read-out: Pigweed plant response rating", "outline": "as §1"}, "[7]": {"test_system": "giant foxtail (Setaria faberii)", "test": "Test A preemergence, visual injury rating", "settings": "Setaria faberi, pre-emergence, 240 h, 0 to 100 scale (0 no effect, 100 complete control), read-out: Foxtail, Giant plant response rating", "outline": "as §1"}, "[8]": {"test_system": "galium (catchweed bedstraw, Galium aparine)", "test": "Test C postemergence, plant response rating", "settings": "Galium, post-emergence", "outline": "(§2)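 Greenhouse plants rated visually against untreated controls 13–15 d after treatment, scale 0 = no effect to 100 = complete control. Postemergence sprays went onto potted plants 2–18 cm tall (1–4 leaves); preemergence sprays onto soil freshly sown in loam–sand or silt loam, chemicals formulated in non-phytotoxic solvent with surfactant.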"}, "[9]": {"test_system": "kochia (Kochia scoparia)", "test": "Test C postemergence, plant response rating", "settings": "Bassia scoparia, post-emergence", "outline": "as §2"}, "[10]": {"test_system": "wheat (winter wheat, Triticum aestivum)", "test": "Test C postemergence, plant response rating", "settings": "Triticum aestivum, post-emergence", "outline": "as §2"}, "[11]": {"test_system": "barnyardgrass (Echinochloa crus-galli)", "test": "Test C postemergence, plant response rating", "settings": "Echinochloa crus-galli, post-emergence", "outline": "as §2"}, "[12]": {"test_system": "blackgrass (Alopecurus myosuroides)", "test": "Test C postemergence, plant response rating", "settings": "Alopecurus myosuroides, post-emergence", "outline": "as §2"}, "[13]": {"test_system": "morningglory (Ipomoea coccinea)", "test": "Test C postemergence, plant response rating", "settings": "Ipomoea, post-emergence", "outline": "as §2"}, "[14]": {"test_system": "corn (Zea mays)", "test": "Test C postemergence, plant response rating", "settings": "Zea mays, post-emergence", "outline": "as §2"}, "[15]": {"test_system": "nutsedge, yellow (yellow nutsedge, Cyperus esculentus)", "test": "Test C postemergence, plant response rating", "settings": "Cyperus, post-emergence", "outline": "as §2"}, "[16]": {"test_system": "crabgrass, large (large crabgrass, Digitaria sanguinalis)", "test": "Test C postemergence, plant response rating", "settings": "Digitaria sanguinalis, post-emergence", "outline": "as §2"}, "[17]": {"test_system": "oilseed rape (Brassica napus)", "test": "Test C postemergence, plant response rating", "settings": "Brassica napus, post-emergence", "outline": "as §2"}, "[18]": {"settings": "62 g ai/ha, scale 0 to 100 (0 no effect, 100 complete control)"}, "[19]": {"settings": "125 g ai/ha, scale 0 to 100 (0 no effect, 100 complete control)"}}, "data": [{"smiles": "O=C(OCCC(F)(F)F)c1c(Br)cccc1Oc1ncc(Cl)cn1", "note": "[Compound 26, 3,3,3-trifluoropropyl 2-bromo-6-[(5-chloro-2-pyrimidinyl)oxy]benzoate]", "values": [{"measurement": "pest or weed control at 250 g/ha", "setting": "[1]", "result": 60, "unit": "%"}, {"measurement": "pest or weed control at 125 g/ha", "setting": "[2]; 125 g ai/ha", "result": 70, "unit": "%"}, {"measurement": "pest or weed control at 500 g/ha", "setting": "[2]; 500 g ai/ha", "result": 100, "unit": "%"}, {"measurement": "pest or weed control at 125 g/ha", "setting": "[3]; 125 g ai/ha", "result": 20, "unit": "%"}, {"measurement": "pest or weed control at 500 g/ha", "setting": "[3]; 500 g ai/ha", "result": 20, "unit": "%"}, {"measurement": "pest or weed control at 125 g/ha", "setting": "[4]; 125 g ai/ha", "result": 100, "unit": "%"}, {"measurement": "pest or weed control at 500 g/ha", "setting": "[4]; 500 g ai/ha", "result": 100, "unit": "%"}, {"measurement": "pest or weed control at 125 g/ha", "setting": "[5]; 125 g ai/ha", "result": 100, "unit": "%"}, {"measurement": "pest or weed control at 500 g/ha", "setting": "[5]; 500 g ai/ha", "result": 100, "unit": "%"}, {"measurement": "pest or weed control at 125 g/ha", "setting": "[6]; 125 g ai/ha", "result": 100, "unit": "%"}, {"measurement": "pest or weed control at 500 g/ha", "setting": "[6]; 500 g ai/ha", "result": 100, "unit": "%"}, {"measurement": "pest or weed control at 125 g/ha", "setting": "[7]; 125 g ai/ha", "result": 100, "unit": "%"}, {"measurement": "pest or weed control at 500 g/ha", "setting": "[7]; 500 g ai/ha", "result": 100, "unit": "%"}, {"measurement": "pest or weed control at 16 g/ha", "setting": "[8]; 16 g ai/ha, scale 0 to 100", "result": 55, "unit": "%"}, {"measurement": "pest or weed control at 31 g/ha", "setting": "[8]; 31 g ai/ha, scale 0 to 100", "result": 80, "unit": "%"}, {"measurement": "pest or weed control at 62 g/ha", "setting": "[8]; [18]", "result": 95, "unit": "%"}, {"measurement": "pest or weed control at 125 g/ha", "setting": "[8]; [19]", "result": 95, "unit": "%"}, {"measurement": "pest or weed control at 16 g/ha", "setting": "[9]; 16 g ai/ha, scale 0 to 100", "result": 90, "unit": "%"}, {"measurement": "pest or weed control at 31 g/ha", "setting": "[9]; 31 g ai/ha, scale 0 to 100", "result": 90, "unit": "%"}, {"measurement": "pest or weed control at 62 g/ha", "setting": "[9]; [18]", "result": 90, "unit": "%"}, {"measurement": "pest or weed control at 125 g/ha", "setting": "[9]; [19]", "result": 95, "unit": "%"}, {"measurement": "plant injury at 16 g/ha", "setting": "[10]; 16 g ai/ha, scale 0 to 100", "result": 0, "unit": "%"}, {"measurement": "plant injury at 31 g/ha", "setting": "[10]; 31 g ai/ha, scale 0 to 100", "result": 0, "unit": "%"}, {"measurement": "plant injury at 62 g/ha", "setting": "[10]; 62 g ai/ha, scale 0 to 100 (0 no effect, 100 complete control), read-out: Wheat plant response rating", "result": 5, "unit": "%"}, {"measurement": "plant injury at 125 g/ha", "setting": "[10]; [19]", "result": 10, "unit": "%"}, {"measurement": "pest or weed control at 16 g/ha", "setting": "[11]; 16 g ai/ha, scale 0 to 100", "result": 10, "unit": "%"}, {"measurement": "pest or weed control at 31 g/ha", "setting": "[11]; 31 g ai/ha, scale 0 to 100", "result": 10, "unit": "%"}, {"measurement": "pest or weed control at 62 g/ha", "setting": "[11]; [18]", "result": 20, "unit": "%"}, {"measurement": "pest or weed control at 125 g/ha", "setting": "[11]; [19]", "result": 30, "unit": "%"}, {"measurement": "pest or weed control at 16 g/ha", "setting": "[12]; 16 g ai/ha, scale 0 to 100", "result": 10, "unit": "%"}, {"measurement": "pest or weed control at 31 g/ha", "setting": "[12]; 31 g ai/ha, scale 0 to 100", "result": 15, "unit": "%"}, {"measurement": "pest or weed control at 62 g/ha", "setting": "[12]; [18]", "result": 15, "unit": "%"}, {"measurement": "pest or weed control at 125 g/ha", "setting": "[12]; [19]", "result": 35, "unit": "%"}, {"measurement": "pest or weed control at 16 g/ha", "setting": "[13]; 16 g ai/ha, scale 0 to 100", "result": 65, "unit": "%"}, {"measurement": "pest or weed control at 31 g/ha", "setting": "[13]; 31 g ai/ha, scale 0 to 100", "result": 60, "unit": "%"}, {"measurement": "pest or weed control at 62 g/ha", "setting": "[13]; [18]", "result": 65, "unit": "%"}, {"measurement": "pest or weed control at 125 g/ha", "setting": "[13]; [19]", "result": 85, "unit": "%"}, {"measurement": "Corn plant response rating (crop injury, 0 = no effect, 100 = complete kill) at 16 g/ha", "setting": "[14]; 16 g ai/ha, scale 0 to 100", "result": 20, "unit": "%"}, {"measurement": "Corn plant response rating (crop injury, 0 = no effect, 100 = complete kill) at 31 g/ha", "setting": "[14]; 31 g ai/ha, scale 0 to 100", "result": 25, "unit": "%"}, {"measurement": "plant injury at 62 g/ha", "setting": "[14]; [18]", "result": 20, "unit": "%"}, {"measurement": "plant injury at 125 g/ha", "setting": "[14]; [19]", "result": 25, "unit": "%"}, {"measurement": "pest or weed control at 16 g/ha", "setting": "[15]; 16 g ai/ha, scale 0 to 100", "result": 5, "unit": "%"}, {"measurement": "pest or weed control at 31 g/ha", "setting": "[15]; 31 g ai/ha, scale 0 to 100", "result": 10, "unit": "%"}, {"measurement": "pest or weed control at 62 g/ha", "setting": "[15]; [18]", "result": 10, "unit": "%"}, {"measurement": "pest or weed control at 125 g/ha", "setting": "[15]; [19]", "result": 10, "unit": "%"}, {"measurement": "pest or weed control at 16 g/ha", "setting": "[16]; 16 g ai/ha, scale 0 to 100", "result": 10, "unit": "%"}, {"measurement": "pest or weed control at 31 g/ha", "setting": "[16]; 31 g ai/ha, scale 0 to 100", "result": 20, "unit": "%"}, {"measurement": "pest or weed control at 62 g/ha", "setting": "[16]; [18]", "result": 25, "unit": "%"}, {"measurement": "pest or weed control at 125 g/ha", "setting": "[16]; [19]", "result": 65, "unit": "%"}, {"measurement": "plant injury at 16 g/ha", "setting": "[17]; 16 g ai/ha, scale 0 to 100", "result": 40, "unit": "%"}, {"measurement": "plant injury at 31 g/ha", "setting": "[17]; 31 g ai/ha, scale 0 to 100", "result": 75, "unit": "%"}, {"measurement": "plant injury at 62 g/ha", "setting": "[17]; [18]", "result": 75, "unit": "%"}, {"measurement": "plant injury at 125 g/ha", "setting": "[17]; [19]", "result": 80, "unit": "%"}]}]}
